In publication PMC9268515, “UGT1A1 and UGT1A9 Are Responsible for Phase II Metabolism of Tectorigenin and Irigenin In Vitro” (Molecules, 2022):

Assays:
Assay type in all cases: in vitro ADME
UGT1A1 = molecular target: T1, UGT1A1 (Homo sapiens, UniProt P22309); assay: Recombinant UGT reaction screening and enzyme kinetics, UGT1A1; conditions: recombinant UGT1A1 screening
T1 construct: purchased BD Biosciences (Woburn, MA, USA)
T1 sequence (P22309 26-533): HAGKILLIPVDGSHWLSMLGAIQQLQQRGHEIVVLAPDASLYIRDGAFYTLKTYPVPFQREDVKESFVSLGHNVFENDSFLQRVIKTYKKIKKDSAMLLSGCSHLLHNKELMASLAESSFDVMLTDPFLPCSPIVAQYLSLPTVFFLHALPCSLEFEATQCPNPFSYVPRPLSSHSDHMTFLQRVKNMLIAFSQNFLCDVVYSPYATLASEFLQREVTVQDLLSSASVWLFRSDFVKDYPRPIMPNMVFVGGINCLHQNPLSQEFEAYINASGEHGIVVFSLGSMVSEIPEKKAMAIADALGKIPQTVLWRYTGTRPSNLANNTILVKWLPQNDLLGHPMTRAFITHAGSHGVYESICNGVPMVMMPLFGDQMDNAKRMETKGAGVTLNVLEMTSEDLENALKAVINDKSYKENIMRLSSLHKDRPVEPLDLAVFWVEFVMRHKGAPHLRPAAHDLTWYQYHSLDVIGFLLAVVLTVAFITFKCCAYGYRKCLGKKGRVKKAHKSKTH
Procedure: (§1) UGT reaction screening of tectorigenin and irigenin was conducted using nine commercially available human UGTs (UGT1A1/1A3/1A4/1A6/1A9/2B4/2B7/2B15/2B17). Furthermore, we studied the enzymatic kinetic characteristics of tectorigenin and irigenin using UGT1A1 and UGT1A9. Six concentrations of tectorigenin and irigenin (1, 3, 10, 30, 100, and 300 μM) were incubated in triplicate in order to obtain the enzyme kinetic characteristics of tectorigenin and irigenin glucuronide.
For both HLMs and UGTs, metabolic kinetic analysis was performed by fitting the data to the Michaelis-Menten model. The Km and Vmax of enzymes were calculated as follows:(3) V=Vmax×[S]/Km+[S], where [S] is the substrate concentration. All results were shown as the mean ± standard error (SE). Differences among different groups were compared using one-way analysis of variance. A p-value < 0.05 was considered statistically significant.

UGT1A3 = molecular target: T2, UGT1A3 (Homo sapiens, UniProt P35503); assay: Recombinant UGT reaction screening, UGT1A3
T2 construct: purchased BD Biosciences (Woburn, MA, USA)
T2 sequence (P35503 29-534): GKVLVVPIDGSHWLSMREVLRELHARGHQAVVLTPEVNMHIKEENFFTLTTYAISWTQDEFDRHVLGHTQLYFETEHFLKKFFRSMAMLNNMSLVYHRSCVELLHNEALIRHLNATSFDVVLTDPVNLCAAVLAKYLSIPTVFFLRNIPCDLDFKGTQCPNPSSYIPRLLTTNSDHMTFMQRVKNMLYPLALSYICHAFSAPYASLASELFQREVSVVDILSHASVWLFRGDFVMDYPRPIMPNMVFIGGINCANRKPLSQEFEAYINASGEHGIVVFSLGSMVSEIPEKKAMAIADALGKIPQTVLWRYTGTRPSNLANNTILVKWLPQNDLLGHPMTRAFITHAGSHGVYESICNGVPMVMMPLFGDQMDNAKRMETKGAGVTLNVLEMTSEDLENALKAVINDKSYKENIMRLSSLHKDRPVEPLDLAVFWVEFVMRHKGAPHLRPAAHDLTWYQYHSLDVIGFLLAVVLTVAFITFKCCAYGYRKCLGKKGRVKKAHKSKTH
Procedure: as §1

UGT1A6 = molecular target: T3, UGT1A6 (Homo sapiens, UniProt P19224); assay: Recombinant UGT reaction screening, UGT1A6
T3 construct: purchased BD Biosciences (Woburn, MA, USA)
T3 sequence (P19224 27-532): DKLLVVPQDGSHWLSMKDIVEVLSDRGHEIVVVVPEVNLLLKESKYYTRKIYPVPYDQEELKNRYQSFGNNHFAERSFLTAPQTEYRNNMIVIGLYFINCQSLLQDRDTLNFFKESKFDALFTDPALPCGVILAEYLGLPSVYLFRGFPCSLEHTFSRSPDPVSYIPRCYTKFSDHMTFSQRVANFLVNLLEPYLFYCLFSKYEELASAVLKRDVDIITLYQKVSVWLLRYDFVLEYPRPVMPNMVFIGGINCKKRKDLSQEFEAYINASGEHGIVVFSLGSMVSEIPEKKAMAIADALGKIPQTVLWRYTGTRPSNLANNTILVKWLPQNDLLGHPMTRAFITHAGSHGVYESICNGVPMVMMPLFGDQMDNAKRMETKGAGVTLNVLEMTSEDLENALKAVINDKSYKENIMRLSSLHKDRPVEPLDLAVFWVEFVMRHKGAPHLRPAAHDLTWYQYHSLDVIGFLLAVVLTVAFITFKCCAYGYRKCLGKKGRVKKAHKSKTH
Procedure: as §1

UGT2B7 = molecular target: T4, UGT2B7 (Homo sapiens, UniProt P16662); assay: Recombinant UGT reaction screening, UGT2B7
T4 construct: purchased BD Biosciences (Woburn, MA, USA)
T4 sequence (P16662 24-529): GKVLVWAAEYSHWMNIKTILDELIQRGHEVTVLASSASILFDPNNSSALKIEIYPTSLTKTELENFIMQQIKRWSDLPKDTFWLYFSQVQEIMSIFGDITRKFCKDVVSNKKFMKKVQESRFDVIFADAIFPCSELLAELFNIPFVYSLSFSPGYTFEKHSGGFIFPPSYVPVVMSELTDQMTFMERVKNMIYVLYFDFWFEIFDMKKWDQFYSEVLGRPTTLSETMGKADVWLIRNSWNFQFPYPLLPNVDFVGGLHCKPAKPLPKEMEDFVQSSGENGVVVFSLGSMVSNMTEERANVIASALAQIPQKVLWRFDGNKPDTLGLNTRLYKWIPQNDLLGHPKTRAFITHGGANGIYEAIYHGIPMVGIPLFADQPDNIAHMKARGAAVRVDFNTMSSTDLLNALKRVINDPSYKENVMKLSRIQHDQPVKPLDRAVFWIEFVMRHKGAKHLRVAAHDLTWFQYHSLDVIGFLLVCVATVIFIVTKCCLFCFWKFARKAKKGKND
Procedure: as §1

UGT2B15 = molecular target: T5, UGT2B15 (Homo sapiens, UniProt P54855); assay: Recombinant UGT reaction screening, UGT2B15
T5 construct: purchased BD Biosciences (Woburn, MA, USA)
T5 sequence (P54855 24-530): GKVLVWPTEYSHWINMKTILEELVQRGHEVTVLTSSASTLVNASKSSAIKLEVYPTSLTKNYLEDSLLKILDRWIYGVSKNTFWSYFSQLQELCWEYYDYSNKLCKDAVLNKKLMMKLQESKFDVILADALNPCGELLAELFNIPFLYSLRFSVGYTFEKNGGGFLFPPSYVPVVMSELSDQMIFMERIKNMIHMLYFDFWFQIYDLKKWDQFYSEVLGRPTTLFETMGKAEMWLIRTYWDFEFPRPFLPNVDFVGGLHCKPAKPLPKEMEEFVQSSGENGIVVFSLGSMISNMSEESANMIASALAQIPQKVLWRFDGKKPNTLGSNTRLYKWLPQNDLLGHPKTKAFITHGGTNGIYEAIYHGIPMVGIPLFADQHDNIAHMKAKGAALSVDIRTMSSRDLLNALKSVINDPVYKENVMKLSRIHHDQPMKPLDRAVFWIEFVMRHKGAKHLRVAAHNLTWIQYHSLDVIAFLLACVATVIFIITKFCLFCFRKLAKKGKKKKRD
Procedure: as §1

## COc1c(O)cc2occ(-c3ccc(O)cc3)c(=O)c2c1O [Tectorigenin, 5,7,4′-trihydroxyl-6-methoxyl isoflavone]
UGT1A1
  Activity in glucuronidation of tectorigenin: highest activity
UGT1A3
  Activity in glucuronidation of tectorigenin: some activity
UGT1A6
  Activity in glucuronidation of tectorigenin: some activity
UGT2B7
  Activity in glucuronidation of tectorigenin: some activity
UGT2B15
  Activity in glucuronidation of tectorigenin: none
